In US20090048112A1, “Novel Herbicides” (SYNGENTA LIMITED, priority 2005, published 2009):

Columns and labels:
[1] = tested on: Monocotyledonous and dicotyledonous test plants; experiment: Example B3: herbicidal action prior to emergence (pre-emergence), 96-cell seed trays, 1000 g/ha; format: in vivo; set-up: key: 0 is no damage to plant; 5 is total damage to plant; settings: 9 days after application; for AGSTE herbicidal effect (visual assessment, scale 0-5): Agrostis tenius (Colonial bentgrass); for AMARE herbicidal effect (visual assessment, scale 0-5): Amaranthus retroflexus (redroot pigweed); for DIGSA herbicidal effect (visual assessment, scale 0-5): Digitaria sanguinalis (hairy finger-grass); for POATR herbicidal effect (visual assessment, scale 0-5): Poa trivialis (rough blue grass); for SETIT herbicidal effect (visual assessment, scale 0-5): Setaria italica (foxtail millet)
Description: Monocotyledonous and dicotyledonous test plants were sown in sterilised standard soil in seed trays each with 96 cells. The seed trays were stored under controlled conditions in a climatic chamber for one day (cultivation at 23° C. during the day and 17° C. at night; 13 hours of light; 50-60% humidity). The chemicals were applied to the soil surface. The application was carried out with an aqueous suspension of the test substances, prepared as a formulation in water with 10% dimethyl sulfoxide (CAS RN 67-68-5), to achieve a field equivalent of 1000 l/ha. The application rate of the test substances was 1000 g/ha. The plants were grown on in the climatic chamber for 9 days (cultivation at 24° C. during the day and 19° C. at night; 13 hours of light; 50-60% humidity). A visual assessment of the herbicidal effect was made at 9 days after application. The following scale was used for assessment: 0, 1, 2, 3, 4 and 5 (where 0 is no damage to plant and 5 is total damage to plant).

[2] = tested on: Monocotyledonous and dicotyledonous test plants; experiment: Example B1: herbicidal action prior to emergence (pre-emergence), 500 g/ha; format: in vivo; settings: 13 days after application, 0 = no damage, 100 = plants completely dead; for ALOMY herbicidal effect (visual assessment, percentage scale): Alopecurus myosuroides (slender foxtail); for AMARE herbicidal effect (visual assessment, percentage scale): Amaranthus retroflexus (redroot pigweed); for ECHCG herbicidal effect (visual assessment, percentage scale): Echinochloa crus-galli (barnyard grass); for STEME herbicidal effect (visual assessment, percentage scale): Stellaria media (chickweed)
Description: Monocotyledonous and dicotyledonous test plants were sown in seed trays in standard compost. The trays were watered twice daily or as required. The chemicals were applied by track sprayer at the soil surface. The application was carried out with an aqueous suspension of the test substances, prepared as a formulation of 50% acetone in water with 0.5% Tween 20™ (CAS RN 9005-64-5), to achieve a field equivalent of 1000 l/ha. The application rate of the test substances was 500 g/ha. A visual assessment of the herbicidal effect was made at 13 days after application. The following percentage scale was used for assessment: 0, 5, 10, 20, 30, 40, 50, 60, 70, 80, 90, 95, 100 (where 0 is no damage to plants and 100 is plants are completely dead).

Row | SMILES | AGSTE herbicidal effect (visual assessment, scale 0-5) [1] | AMARE herbicidal effect (visual assessment, scale 0-5) [1] | DIGSA herbicidal effect (visual assessment, scale 0-5) [1] | POATR herbicidal effect (visual assessment, scale 0-5) [1] | SETIT herbicidal effect (visual assessment, scale 0-5) [1] | ALOMY herbicidal effect (visual assessment, percentage scale) [2] [%] | AMARE herbicidal effect (visual assessment, percentage scale) [2] [%] | ECHCG herbicidal effect (visual assessment, percentage scale) [2] [%] | STEME herbicidal effect (visual assessment, percentage scale) [2] [%]
1 | CC(Oc1c(C[S+]([O-])c2ncc(Cl)s2)c(C(F)(F)F)nn1C)C(F)(F)F (mixture of isomers) [Compound 1.127] | 5 | 5 | 5 | 5 | 5 | – | – | – | –
2 | CC[S+]([O-])c1c(C[S+]([O-])c2ncc(Cl)s2)c(C(F)(F)F)nn1C (mixture of isomers) [Compound No. 1.078] | 5 | 4 | 5 | 5 | 5 | – | – | – | –
3 | CCS(=O)(=O)c1c(C[S+]([O-])c2ncc(Cl)s2)c(C(F)(F)F)nn1C (racemic) [1.080] | 5 | 4 | 5 | 5 | 5 | – | – | – | –
4 | Cn1nc(C(F)(F)F)c(C[S+]([O-])c2ncc(Cl)s2)c1F (racemic) [Compound 1.008] | – | – | – | – | – | 95 | 100 | 95 | 80
5 | Cn1nc(C(F)(F)F)c(C[S+]([O-])c2ncc(Br)s2)c1F (racemic) [Compound 1.011] | – | – | – | – | – | 95 | 95 | 95 | 10
6 | Cn1nc(C(F)(F)F)c(C[S+]([O-])c2nccs2)c1OCC(F)(F)F (racemic) [Compound 1.048] | – | – | – | – | – | 80 | 95 | 95 | 80
7 | Cn1nc(OC(F)F)c(C[S+]([O-])c2ncc(Cl)s2)c1C(F)(F)F (racemic) [Compound 1.054] | – | – | – | – | – | 95 | 100 | 95 | 30
8 | Cn1nc(C(F)(F)F)c(C[S+]([O-])c2ncc(C(F)F)s2)c1OCC(F)(F)F (racemic) [Compound 1.086] | 5 | 5 | 5 | 5 | 4 | – | – | – | –
9 | Cn1nc(C(F)(F)F)c(C[S+]([O-])c2ncc(Cl)s2)c1OCCCF (racemic) [Compound 1.103] | 5 | 4 | 5 | 5 | 4 | – | – | – | –
10 | Cn1cc(C[S+]([O-])c2ncc(Cl)s2)c(C(F)(F)F)n1 (racemic) [Compound 1.106] | 0 | 2 | 4 | 5 | 4 | – | – | – | –
11 | Cn1nc(C(F)(F)F)c(C(F)S(=O)(=O)c2ncc(Br)s2)c1Cl (racemic) [Compound No. 1.032] | – | – | – | – | – | 60 | 80 | 80 | 60
12 | Cn1nc(C(F)(F)F)c(C(Cl)S(=O)(=O)c2ncc(Cl)s2)c1OCC(F)(F)F (racemic) [Compound No. 1.034] | – | – | – | – | – | 70 | 100 | 95 | 40
13 | Cn1nc(C(F)(F)F)c(C(F)(Cl)S(=O)(=O)c2ncc(Cl)s2)c1OCC(F)(F)F (racemic) [Compound No. 1.035] | – | – | – | – | – | 0 | 95 | 95 | 20
14 | Cn1nc(C(F)(F)F)c(C(Cl)S(=O)(=O)c2ncc(Br)s2)c1OCC(F)(F)F (racemic) [Compound No. 1.039] | – | – | – | – | – | 60 | 95 | 95 | 0
15 | Cn1nc(C(F)(F)F)c(C(Cl)S(=O)(=O)c2ncc(Cl)s2)c1Cl (racemic) [Compound No. 1.043] | – | – | – | – | – | 0 | 80 | 95 | 0
16 | Cn1nc(C(F)(F)F)c(C(F)(Cl)S(=O)(=O)c2ncc(Cl)s2)c1Cl (racemic) [Compound No. 1.044] | – | – | – | – | – | 40 | 95 | 95 | 90
17 | Cn1nc(C(F)(F)F)c(C(F)S(=O)(=O)c2ncc(Cl)s2)c1Cl (racemic) [Compound No. 1.045] | – | – | – | – | – | 70 | 100 | 100 | 0
18 | Cn1nc(C(F)(F)F)c(CS(=O)(=O)c2nc(Br)cs2)c1OCC(F)(F)F [Compound 1.029] | – | – | – | – | – | 0 | 95 | 0 | 95
19 | Cn1nc(C(F)(F)F)c(CS(=O)(=O)c2nccs2)c1OCC(F)(F)F [Compound 1.049] | – | – | – | – | – | 30 | 95 | 95 | 10
20 | Cn1nc(C(F)(F)F)c(CSc2ncc(Cl)s2)c1F [Compound No. 1.007] | – | – | – | – | – | 95 | 80 | 95 | 40
21 | Cn1nc(C(F)(F)F)c(CS(=O)(=O)c2ncc(Cl)s2)c1F [Compound No. 1.009] | – | – | – | – | – | 0 | 95 | 95 | 0
22 | Cn1nc(C(F)(F)F)c(CSc2ncc(Br)s2)c1F [Compound No. 1.010] | – | – | – | – | – | 60 | 70 | 80 | 0
23 | Cn1nc(C(F)(F)F)c(CS(=O)(=O)c2ncc(Br)s2)c1F [Compound No. 1.012] | – | – | – | – | – | 70 | 90 | 95 | 0
24 | Cn1nc(C(F)(F)F)c(CS(=O)(=O)c2ncc(Cl)s2)c1OCC(F)(F)F [Compound No. 1.015] | – | – | – | – | – | 90 | 95 | 95 | 80
25 | Cn1nc(C(F)(F)F)c(CS(=O)(=O)c2ncc(Cl)s2)c1Cl [Compound No. 1.018] | – | – | – | – | – | 60 | 100 | 95 | 0
26 | Cn1nc(C(F)(F)F)c(C(F)(F)S(=O)(=O)c2ncc(Br)s2)c1OCC(F)(F)F [Compound No. 1.042] | – | – | – | – | – | 60 | 100 | 95 | 90
